According to patent US20090181963A1, “3H-[1,2,3]TRIAZOLO[4,5-D]PYRIMIDINE COMPOUNDS, THEIR USE AS mTOR KINASE AND PI3 KINASE INHIBITORS, AND THEIR [sequence]” (Wyeth, priority 2008, published 2009):
pIC50: −log10 of the molar value.

Assays:
PI3 Kinase α = PI3 Kinase α (Homo sapiens, UniProt P42336); experiment: Fluorescence polarization assay for PI3K (PI3 Kinase α); assay type: biochemical; details: diC8-PI(4,5)P2 substrate, 25 μM ATP, one hour at 25° C.
PI3 Kinase γ = PI3 Kinase γ (Homo sapiens, UniProt P48736); experiment: Fluorescence polarization assay for PI3K (PI3 Kinase γ); assay type: biochemical; details: diC8-PI(4,5)P2 substrate, 25 μM ATP, one hour at 25° C.
PI3 Kinase γ, sequence (P48736 whole entry): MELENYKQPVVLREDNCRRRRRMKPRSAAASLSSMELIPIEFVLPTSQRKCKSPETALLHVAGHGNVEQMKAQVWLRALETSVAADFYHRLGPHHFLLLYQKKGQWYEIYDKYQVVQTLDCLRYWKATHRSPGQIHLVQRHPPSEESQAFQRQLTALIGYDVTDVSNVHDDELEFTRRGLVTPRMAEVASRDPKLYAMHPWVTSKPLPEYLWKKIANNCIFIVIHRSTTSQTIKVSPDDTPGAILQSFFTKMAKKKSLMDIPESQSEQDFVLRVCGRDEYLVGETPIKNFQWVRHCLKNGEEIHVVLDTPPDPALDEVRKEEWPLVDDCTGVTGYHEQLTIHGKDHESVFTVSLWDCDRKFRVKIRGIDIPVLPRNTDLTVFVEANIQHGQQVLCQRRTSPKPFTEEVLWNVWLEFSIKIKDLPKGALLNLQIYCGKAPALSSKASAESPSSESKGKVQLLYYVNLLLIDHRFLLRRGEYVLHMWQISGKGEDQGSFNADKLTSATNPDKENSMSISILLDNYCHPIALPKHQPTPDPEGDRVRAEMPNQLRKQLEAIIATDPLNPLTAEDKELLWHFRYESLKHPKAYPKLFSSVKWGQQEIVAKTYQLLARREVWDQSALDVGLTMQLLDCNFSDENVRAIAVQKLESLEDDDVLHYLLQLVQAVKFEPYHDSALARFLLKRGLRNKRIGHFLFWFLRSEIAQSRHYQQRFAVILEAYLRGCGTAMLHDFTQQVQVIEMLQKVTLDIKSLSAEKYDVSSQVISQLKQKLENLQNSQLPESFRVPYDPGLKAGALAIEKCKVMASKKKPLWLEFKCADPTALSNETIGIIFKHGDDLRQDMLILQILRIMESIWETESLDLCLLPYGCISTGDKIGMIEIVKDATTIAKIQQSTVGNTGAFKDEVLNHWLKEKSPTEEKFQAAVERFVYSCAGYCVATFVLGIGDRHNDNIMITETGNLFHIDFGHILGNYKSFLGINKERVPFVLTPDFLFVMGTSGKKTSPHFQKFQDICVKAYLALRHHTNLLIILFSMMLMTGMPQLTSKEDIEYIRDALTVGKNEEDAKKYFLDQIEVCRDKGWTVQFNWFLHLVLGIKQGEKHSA
Protocol: Nunc 384 well black polypropylene fluorescent plates were used for PI3K assays. Reactions were quenched by the addition of EDTA to a final concentration of 10 μM. Final reaction volumes were 10 ml. […] Reactions were allowed to proceed for one hour at 25° C. After I hour, GST-tagged GRP1 (general receptor for phosphoinositides) PH domain fusion protein was added to a final concentration of 100 nM, and BODIPY-TMRI(1,3,4,5)P4 (Echelon) was also added to a final concentration of 5 nM. Final sample volumes were 25 μl with a final DMSO concentration of 0.8%. Assay Plates were read on PerkinElmer Envision plate readers with appropriate filters for Tamra [BODIPY-TMRI(1,3,4,5)P4]. Data obtained were used to calculate enzymatic activity and enzyme inhibition by inhibitor compounds.

PI3 Kinase α, sequence (P42336 whole entry): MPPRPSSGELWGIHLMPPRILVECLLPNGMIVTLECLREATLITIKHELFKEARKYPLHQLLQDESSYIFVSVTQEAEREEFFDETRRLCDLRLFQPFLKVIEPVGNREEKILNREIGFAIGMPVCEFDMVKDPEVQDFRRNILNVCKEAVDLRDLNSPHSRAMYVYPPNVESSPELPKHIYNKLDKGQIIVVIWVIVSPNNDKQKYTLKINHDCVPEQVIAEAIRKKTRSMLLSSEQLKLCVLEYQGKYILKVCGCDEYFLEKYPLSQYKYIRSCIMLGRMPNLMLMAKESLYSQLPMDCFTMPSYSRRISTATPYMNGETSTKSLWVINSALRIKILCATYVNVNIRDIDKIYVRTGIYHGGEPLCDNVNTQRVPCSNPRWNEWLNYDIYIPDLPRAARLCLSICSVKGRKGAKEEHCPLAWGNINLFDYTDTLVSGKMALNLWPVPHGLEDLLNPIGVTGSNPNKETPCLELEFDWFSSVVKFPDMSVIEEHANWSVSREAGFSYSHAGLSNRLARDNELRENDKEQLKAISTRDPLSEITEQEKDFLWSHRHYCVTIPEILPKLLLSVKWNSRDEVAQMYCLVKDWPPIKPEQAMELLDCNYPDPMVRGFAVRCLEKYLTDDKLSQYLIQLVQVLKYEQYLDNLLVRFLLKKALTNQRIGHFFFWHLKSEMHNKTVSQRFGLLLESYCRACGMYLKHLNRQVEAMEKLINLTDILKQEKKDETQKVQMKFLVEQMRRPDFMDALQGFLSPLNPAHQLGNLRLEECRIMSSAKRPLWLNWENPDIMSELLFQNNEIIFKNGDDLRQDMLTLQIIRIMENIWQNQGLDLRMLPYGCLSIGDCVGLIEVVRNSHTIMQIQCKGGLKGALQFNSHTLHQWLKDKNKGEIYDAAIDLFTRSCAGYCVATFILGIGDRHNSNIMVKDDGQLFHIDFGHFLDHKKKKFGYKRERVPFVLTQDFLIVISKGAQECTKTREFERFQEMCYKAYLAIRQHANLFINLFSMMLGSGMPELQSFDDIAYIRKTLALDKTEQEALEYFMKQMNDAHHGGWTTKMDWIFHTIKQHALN
PI3 Kinase α, sequence (P27986 whole entry partner): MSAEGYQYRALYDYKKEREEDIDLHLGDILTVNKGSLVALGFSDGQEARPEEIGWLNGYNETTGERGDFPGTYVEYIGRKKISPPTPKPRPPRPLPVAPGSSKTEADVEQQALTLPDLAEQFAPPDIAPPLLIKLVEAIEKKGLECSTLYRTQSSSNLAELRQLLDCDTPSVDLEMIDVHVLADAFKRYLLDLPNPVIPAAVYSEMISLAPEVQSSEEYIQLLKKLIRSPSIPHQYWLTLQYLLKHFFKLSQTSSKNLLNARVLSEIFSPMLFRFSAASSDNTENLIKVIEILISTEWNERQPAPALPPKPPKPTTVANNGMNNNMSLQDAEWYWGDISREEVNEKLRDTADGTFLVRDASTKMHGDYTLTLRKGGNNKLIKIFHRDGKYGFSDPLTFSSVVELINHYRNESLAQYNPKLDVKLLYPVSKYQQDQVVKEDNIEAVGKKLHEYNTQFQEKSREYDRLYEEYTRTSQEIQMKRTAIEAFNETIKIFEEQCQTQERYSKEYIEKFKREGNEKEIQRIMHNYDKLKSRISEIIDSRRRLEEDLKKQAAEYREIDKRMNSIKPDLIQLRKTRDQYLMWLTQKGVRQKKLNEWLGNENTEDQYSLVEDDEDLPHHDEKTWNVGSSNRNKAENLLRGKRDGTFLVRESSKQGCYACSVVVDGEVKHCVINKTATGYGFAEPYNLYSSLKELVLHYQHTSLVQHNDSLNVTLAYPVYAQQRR

COC(Cn1nnc2c(N3CCOCC3)nc(-c3ccc(N)cc3)nc21)OC [Example 178, 4-[3-(2,2-dimethoxyethyl)-7-morpholin-4-yl-3H-[1,2,3]triazolo[4,5-d]pyrimidin-5-yl]aniline]
pIC50 (PI3 Kinase α): 5.87 | pIC50 (PI3 Kinase γ): < 5.00

COC(Cn1nnc2c(N3CCOCC3)nc(-c3ccc(NC(=O)Nc4ccc(C)cc4)cc3)nc21)OC [Example 179, 1-{4-[3-(2,2-dimethoxyethyl)-7-morpholin-4-yl-3H-[1,2,3]triazolo[4,5-d]pyrimidin-5-yl]phenyl}-3-(4-methylphenyl)urea]
pIC50 (PI3 Kinase α): 6.85 | pIC50 (PI3 Kinase γ): 6.47

COC(Cn1nnc2c(N3CCOCC3)nc(-c3ccc(NC(=O)Nc4ccc(F)cc4)cc3)nc21)OC [Example 180, 1-{4-[3-(2,2-dimethoxyethyl)-7-morpholin-4-yl-3H-[1,2,3]triazolo[4,5-d]pyrimidin-5-yl]phenyl}-3-(4-fluorophenyl)urea]
pIC50 (PI3 Kinase α): 7.17 | pIC50 (PI3 Kinase γ): 6.82

COC(Cn1nnc2c(N3CCOCC3)nc(-c3ccc(NC(=O)Nc4cccnc4)cc3)nc21)OC [Example 181, 1-{4-[3-(2,2-dimethoxyethyl)-7-morpholin-4-yl-3H-[1,2,3]triazolo[4,5-d]pyrimidin-5-yl]phenyl}-3-pyridin-3-ylurea]
pIC50 (PI3 Kinase α): 7.23 | pIC50 (PI3 Kinase γ): 6.73

COC(Cn1nnc2c(N3CCOCC3)nc(-c3ccc(NC(=O)Nc4ccc(C(N)=O)cc4)cc3)nc21)OC [Example 182, 4-[({4-[3-(2,2-dimethoxyethyl)-7-morpholin-4-yl-3H-[1,2,3]triazolo[4,5-d]pyrimidin-5-yl]phenyl}carbamoyl)amino]benzamide]
pIC50 (PI3 Kinase α): 8.40 | pIC50 (PI3 Kinase γ): 7.57

O=C(Nc1ccc(-c2nc(N3CCOCC3)c3nnn(CCO)c3n2)cc1)Nc1cccnc1 [Example 184, 1-{4-[3-(2-hydroxyethyl)-7-morpholin-4-yl-3H-[1,2,3]triazolo[4,5-d]pyrimidin-5-yl]phenyl}-3-pyridin-3-ylurea]
pIC50 (PI3 Kinase α): 7.70 | pIC50 (PI3 Kinase γ): 7.33

COc1ccc(NC(=O)Nc2ccc(-c3nc(N4CCOCC4)c4nnn(CCO)c4n3)cc2)cc1 [Example 185, 1-{4-[3-(2-hydroxyethyl)-7-morpholin-4-yl-3H-[1,2,3]triazolo[4,5-d]pyrimidin-5-yl]phenyl}-3-(4-methoxyphenyl)urea]
pIC50 (PI3 Kinase α): 7.85 | pIC50 (PI3 Kinase γ): 7.35

O=C(Nc1ccccc1)Nc1ccc(-c2nc(N3CCOCC3)c3nnn(CCO)c3n2)cc1 [Example 186, 1-{4-[3-(2-hydroxyethyl)-7-morpholin-4-yl-3H-[1,2,3]triazolo[4,5-d]pyrimidin-5-yl]phenyl}-3-phenylurea]
pIC50 (PI3 Kinase α): 8.33 | pIC50 (PI3 Kinase γ): 7.66

CC(C)(C)OC(=O)N1CC(Cn2nnc3c(N4CCOCC4)nc(-c4ccc(N)cc4)nc32)C1 [Example 187, tert-Butyl 3-{[5-(4-aminophenyl)-7-morpholin-4-yl-3H-[1,2,3]triazolo[4,5-d]pyrimidin-3-yl]methyl}azetidine-1-carboxylate]
pIC50 (PI3 Kinase α): 5.68 | pIC50 (PI3 Kinase γ): 4.92

CC(C)(C)OC(=O)N1CC(Cn2nnc3c(N4CCOCC4)nc(-c4ccc(NC(=O)Nc5ccccc5)cc4)nc32)C1 [Example 188, tert-butyl 3-[(7-morpholin-4-yl-5-{4-[(phenylcarbamoyl)amino]phenyl}-3H-[1,2,3]triazolo[4,5-d]pyrimidin-3-yl)methyl]azetidine-1-carboxylate]
pIC50 (PI3 Kinase α): 7.71 | pIC50 (PI3 Kinase γ): 6.29

O=C(Nc1ccccc1)Nc1ccc(-c2nc(N3CCOCC3)c3nnn(CC4CNC4)c3n2)cc1 [Example 189, 1-{4-[3-(azetidin-3-ylmethyl)-7-morpholin-4-yl-3H-[1,2,3]triazolo[4,5-d]pyrimidin-5-yl]phenyl}-3-phenylurea]
pIC50 (PI3 Kinase α): 8.10 | pIC50 (PI3 Kinase γ): 7.55

O=C(Nc1ccccc1)Nc1ccc(-c2nc(N3CCOCC3)c3nnn(CC4CN(C(=O)c5ccccc5)C4)c3n2)cc1 [Example 190, 1-(4-{3-[(1-benzoylazetidin-3-yl)methyl]-7-morpholin-4-yl-3H-[1,2,3]triazolo[4,5-d]pyrimidin-5-yl}phenyl)-3-phenylurea]
pIC50 (PI3 Kinase α): 7.72 | pIC50 (PI3 Kinase γ): 6.46
